Data from patent publication US6977269B1, “Method of improving animal tissue quality” (Pioneer Hi-Bred International, Inc, priority 2001, dated 2005).
Like-named read-outs stand apart in the source and are kept apart here. Marks after values point to notes of the source that are not given here.

Key:
pigs [1] = test: Pork loin pH in swine feeding trial; assay type: in vivo
Procedure: (§1) Applicants assessed the effects of gamma-tocopherol supplementation on meat quality in an experiment in which pork from pigs fed one of three dietary concentrations of gamma-tocopherol was compared to pork from pigs fed either no supplemental tocopherol in excess of amounts needed to support growth and development, or one of three dietary concentrations of alpha-tocopherol.
(§2) Young pigs were fed a diet containing 15 IU/kg feed (=15 mg/kg feed=[…]) vitamin E (in the form of alpha-tocopherol acetate) up to 120 pounds. Upon reaching 120 pounds, the pigs were randomly assigned to treatments using weight as a blocking factor. Sixteen pigs were allocated to the control diet, while thirteen pigs were allocated to each test diet. Treatments consisted of typical corn-soybean meal based diets with three levels of dietary tocopherol: (1) Control diet (15 mg/kg feed alpha-tocopherol acetate); (2) diets supplemented with 150, 300 or 450 mg/kg feed alpha-tocopherol acetate; and (3) diets supplemented with 150, 300 or 450 mg/kg feed gamma-tocopherol. Diets were formulated to provide adequate levels of all nutrients and fed in four phases.
(§3) The levels of alpha-tocopherol supplementation chosen were those previously shown to improve meat quality and the pigs consuming these diets were used as positive controls. Pigs consuming diets without additional supplementation of alpha or gamma-tocopherol were used as negative controls. Pork quality was assessed using standard methods, including pH, Japanese color score, oxidative stability, retail display appearance and Minolta color values.
(§4) The trial was terminated when the average weight of a treatment replicate reached 260 pounds (minimum of 60 days). Standard carcass data (hot carcass weight, backfat, loin depth and lean) were collected. In addition to the standard carcass data collected at the slaughter plant, color, pH, marbling, firmness and Hunter Lab data were collected. Loin and ham samples were also collected for determination of gamma-tocopherol concentration.
(§5) Determination of pH was made on days 0 and 5 as an indication of pork spoilage. Oxidative rancidity was measured using 2-Thiobarbituric acid to determine TBA number. Final values were expressed as mg malonaldehyde per 1000 grams of meat. Purge was determined on the vacuum-packaged pork loins.
(§6) Data were analyzed using the GLM procedure of SAS. Due to a limited number of observations from the 150 IU alpha-tocopherol treatment, no estimates of carcass or loin quality measures are presented for that treatment. Data collected over a period of days were also analyzed as a splitplot. Contrasts were made between the Control and added tocopherol diets, Control and alpha-tocopherol, Control and gamma-tocopherol, and alpha- versus gamma-tocopherol.

pigs [2] = test: Japanese color score of pork loin in swine feeding trial; assay type: in vivo
Procedure: as §1, §2, §3, §4, §6

pigs [3] = test: Oxidative rancidity of pork chops (2-thiobarbituric acid, TBA number); assay type: in vivo
Procedure: as §2
(§7) Pork chops (2.5 cm) were cut from vacuum-packaged pork loins that had been stored for 21 days at 1 degree C. Freshly cut chops were placed on styrofoam trays with DriLoc (V 50 pads) and overwrapped with PVC (23,250 cc/m 2 /24 hours oxygen permeability). Pork chops were placed in simulated retail display at 2±3 degrees C. for six days. Product temperature was monitored during the display period. Chops were analyzed for lightness (L*), redness (a*), and yellowness (b*) using Illuminant C or D65 on a Minolta Chroma Meter. Three readings per chop were taken on display days 0, 1, 2, 3, 4 and 5.
as §5, §6

pigs [4] = test: Visual panel appearance score of pork loin chops in simulated retail display; assay type: in vivo
Procedure: as §2, §7
Loin chop color was evaluated using a trained visual panel of 10 people. Color score was determined using a five-point scale with a score of one (1) representing a very bright pinkish gray and a score of five (5) representing a dull dark red to brown color representative of color deterioration.
as §6

pigs [5] = assay type: in vivo, swine
From the text: The data was derived from the same swine tests as in Example 1. Data from 43 samples was ranked in descending order for four parameters: alpha-tocopherol concentration, gamma-tocopherol concentration, alpha plus gamma-tocopherol concentration, and ratio of alpha-tocopherol to gamma-tocopherol. The data was divided into four quartiles, averaged, and compared to the corresponding quartile loin pH average.

lambs [6] = test: Lamb carcass characteristics; assay type: in vivo; conditions: for Bone maturity: A0 = 1.0 ... A90 = 1.9; for Leg score: high Prime = 15 ... low Choice = 10; for Adjusted fat / Body wall thickness / Dressing percentage / Quality grade / Rib eye area / Yield grade: in vivo; for Hot carcass weight: lambs, 500 IU/kg/day for 45 days; for Flank streaking: trace = 1, slight = 2, small = 3
From the text: Interim and final weights were taken on two consecutive days after 20 and 43 days on test, respectively, to calculate average daily weight gain (ADG) and feed conversion. On the 45th day on test, the lambs were transported to a commercial packing plant and slaughtered the following morning. Standard carcass data were collected.
Characteristics included hot carcass weight, adjusted fat, rib eye area, and body wall thickness. As indicated in the last two columns under Contrasts (P values), there were no statistically significant differences (P<0.05) in carcass measurements between the alpha and gamma groups or between the control group and the alpha and gamma groups.

lambs [7] = test: Lamb loin chop coloration in retail display (Hunter values, trained panel); assay type: in vivo; conditions: for Hunter L / Hunter a / Hunter b: lamb loin chops, retail case display; for Discoloration: lean discoloration; for Discoloration / Brown color intensity: trained panel
Procedure: Following carcass fabrication, one boneless leg and the double loin were collected from each carcass, vacuum-packaged, transported and stored under refrigeration (2 to 4° C.) for seven days. […] chops were fabricated from the semimembranosus muscle from each leg following storage. Leg and double-loin chops were wrapped in oxygen permeable fresh meat PVC film. […] The leg chops and second portion of double loin chops were stored in a walk-in cooler.
After seven days in storage, the leg and loin were placed in a display case for nine days to simulate retail meat counter display conditions. Both sides of the double loin chops were evaluated on days 1, 3, 5 and 9 of retail case display for percent lean discoloration and intensity of brownness by a seven-member trained panel and also by a Spectroguard Computer Color Control System. Left and right observation values were averaged.

[8] = in vivo; cited from earlier work
[9] = pork loin, all supplemented levels pooled
[10] = pork, all supplemented levels pooled
[11] = five-point scale, all supplemented levels pooled

Which PH (pigs [1]; all supplemented levels pooled) does the source give for `Cc1c(C)c2c(c(C)c1O)CC[C@@](C)(CCC[C@H](C)CCC[C@H](C)CCCC(C)C)O2` [Alpha-tocopherol, alpha-tocopherol, reference compound] here?
Its PH is 5.97.

And the PH (pigs [1]; dietary level 300 IU)?
Its PH is 6.08^ab.

And the PH (pigs [1]; dietary level 450 IU)?
Its PH is 5.85^b.

And the “Japanese Color Score” value (pigs [2]; dietary level 300 IU)?
The value was 3.56^ab.

What about the “Japanese Color Score” value (pigs [2]; dietary level 450 IU) of the same compound?
Its value is 3.94^ab.

What about the “Japanese Color Score” value (pigs [2]; [9]) of the same compound?
Its value is 3.75.

And the “Oxidative stability (5 day storage TBA)” value (pigs [3]; dietary level 300 IU)?
Its value is “.134 mg malonaldehyde per 1000 grams of meat”.

And the “Oxidative stability (5 day storage TBA)” value (pigs [3]; dietary level 450 IU)?
The value was “.072 mg malonaldehyde per 1000 grams of meat”.

What about the “Oxidative stability (5 day storage TBA)” value (pigs [3]; [10]) of the same compound?
Its value is “.103 mg malonaldehyde per 1000 grams of meat”.

And the “Appearance score (after 5 day retail display)” value (from here on “Appearance score”) (pigs [4]; dietary level 300 IU)?
The value was 3.49.

And the “Appearance score” value (pigs [4]; dietary level 450 IU)?
Its value is 4.09.

And the “Appearance score” value (pigs [4]; [11])?
Its value is 3.79.

What about the “Corresponding quartile loin pH average” value (pigs [5]; 1st Q of the ranked parameter) of the same compound?
The value was 5.80.

And the “Corresponding quartile loin pH average” value (pigs [5]; 2nd Q of the ranked parameter)?
Its value is 5.78.

What about the “Corresponding quartile loin pH average” value (pigs [5]; 3rd Q of the ranked parameter) of the same compound?
The value was 6.01.

What about the “Corresponding quartile loin pH average” value (pigs [5]; 4th Q of the ranked parameter) of the same compound?
Its value is 5.93.

What about the Bone maturity (lambs [6]) of the same compound?
The Bone maturity was 1.47^b.

And the Leg score (lambs [6])?
Its Leg score is 10.8.

What about the Adjusted fat (lambs [6]) of the same compound?
Its Adjusted fat is 0.55 cm.

And the Body wall thickness (lambs [6])?
The Body wall thickness was 2.13 cm.

What about the Dressing percentage (lambs [6]) of the same compound?
Its Dressing percentage is 48.2.

And the Quality grade (lambs [6])?
Its Quality grade is 5.27.

What about the Rib eye area (lambs [6]) of the same compound?
Its Rib eye area is 5.63 sq. cm.

What about the Yield grade (lambs [6]) of the same compound?
Its Yield grade is 2.42.

And the Hot carcass weight (lambs [6])?
Its Hot carcass weight is 27.4 kg.

What about the Flank streaking (lambs [6]) of the same compound?
Its Flank streaking is 3.02^a.

What about the “Hunter L” value (lambs [7]) of the same compound?
Its value is 36.3^b.

What about the Hunter a (lambs [7]) of the same compound?
Its Hunter a is 11.9.

What about the Hunter b (lambs [7]) of the same compound?
The Hunter b was 7.54.

What about the Discoloration (lambs [7]) of the same compound?
The Discoloration was 12.6%.

And the Brown color intensity (lambs [7])?
Its Brown color intensity is 8.30^b.

And the “absorbed in the bloodstream” value [8]?
Its value is “about 100%”.

What does the source list for `Cc1c(O)cc2c(c1C)O[C@](C)(CCC[C@H](C)CCC[C@H](C)CCCC(C)C)CC2` [Gamma-tocopherol, gamma-tocopherol]?
PH (pigs [1]; all supplemented levels pooled): 6.11; PH (pigs [1]; dietary level 150 IU): 5.99^ab; PH (pigs [1]; dietary level 300 IU): 6.28^a; PH (pigs [1]; dietary level 450 IU): 5.94^b; Japanese Color Score (pigs [2]; dietary level 150 IU): 3.18^ab; Japanese Color Score (pigs [2]; dietary level 300 IU): 4.32^a; Japanese Color Score (pigs [2]; dietary level 450 IU): 3.56^ab; Japanese Color Score (pigs [2]; [9]): 3.94; Oxidative stability (5 day storage TBA) (pigs [3]; dietary level 150 IU): .177 mg malonaldehyde per 1000 grams of meat; Oxidative stability (5 day storage TBA) (pigs [3]; dietary level 300 IU): .080 mg malonaldehyde per 1000 grams of meat; Oxidative stability (5 day storage TBA) (pigs [3]; dietary level 300 IU, listed as gamma-tocopherol): 0.080 mg malonaldehyde per 1000 gram; Oxidative stability (5 day storage TBA) (pigs [3]; dietary level 450 IU): .125 mg malonaldehyde per 1000 grams of meat; Oxidative stability (5 day storage TBA) (pigs [3]; [10]): .102 mg malonaldehyde per 1000 grams of meat; Appearance score (after 5 day retail display) (pigs [4]; dietary level 150 IU): 4.05; Appearance score (after 5 day retail display) (pigs [4]; dietary level 300 IU): 4.06; Appearance score (after 5 day retail display) (pigs [4]; dietary level 450 IU): 3.72; Appearance score (after 5 day retail display) (pigs [4]; [11]): 3.89; Corresponding quartile loin pH average (pigs [5]; 1st Q of the ranked parameter): 6.03; Corresponding quartile loin pH average (pigs [5]; 2nd Q of the ranked parameter): 5.95; Corresponding quartile loin pH average (pigs [5]; 3rd Q of the ranked parameter): 5.77; Corresponding quartile loin pH average (pigs [5]; 4th Q of the ranked parameter): 5.77; Bone maturity (lambs [6]): 1.62^ab; Leg score (lambs [6]): 10.8; Adjusted fat (lambs [6]): 0.47 cm; Body wall thickness (lambs [6]): 1.92 cm; Dressing percentage (lambs [6]): 46.8; Quality grade (lambs [6]): 5.23; Rib eye area (lambs [6]): 5.62 sq. cm; Yield grade (lambs [6]): 2.19; Hot carcass weight (lambs [6]): 27.7 kg; Flank streaking (lambs [6]): 2.40^ab; Hunter L (lambs [7]): 38.4^a; Hunter a (lambs [7]): 11.7; Hunter b (lambs [7]): 8.11; Discoloration (lambs [7]): 13.7%; Brown color intensity (lambs [7]): 10.3^ab; absorbed in the bloodstream [8]: 3–19%
